This data set in a line: plasma pharmacokinetics (elimination half-life, dose proportionality of Cmax and AUC). To be noted: in the dose range 5 mg-500 mg.

Source text: “PK” refers to the pharmacokinetic profile. Cmax is defined as the highest plasma drug concentration estimated during an experiment (ng/ml). Tmax is defined as the time when Cmax is estimated (min). AUC0-∞ is the total area under the plasma drug concentration-time curve, from drug administration until the drug is eliminated (ng·hr/ml or μg·hr/ml). The area under the curve is governed by clearance. Clearance is defined as the volume of blood or plasma that is totally cleared of its content of drug per unit time (ml/min).

As to `N[C@H]1C[C@@H](C(=O)O)CC1=C(F)F`, the AUCs dose proportionality result was “greater than proportional increase”.

Source of the values: US11918551B2, “Methods of treating seizure disorders and Prader-Willi syndrome” (Ovid Therapeutics, Inc., priority 2017, dated 2024).
